Values of other authors as cited in PubChem BioAssay AID1259409 (Chemical Carcinogenesis Research Information System (CCRIS), 2018).

Tested on: rodent chemically induced tumor inhibition, incidence and multiplicity
Test: CCRIS tumor inhibitor studies

O=c1c(O)c(-c2ccc(O)c(O)c2)oc2cc(O)cc(O)c12
tumour outcome (control, treated, inhibition, significance) (Carcinogen: 4-NITROQUINOLINE-1-OXIDE, 56-57-5, Dose [Inhibitor]: 0, 500 PPM IN DIET FOR 10 WK BEGINNING 1 WK PRIOR TO CARCINOGEN DOSE (STUDY DURATION: 32 WK), Route [Inhibitor]: ORAL, Species: RAT, Strain/Sex: F344/MALE, Target Tissue: Type of Lesion: TONGUE: CARCINOMA, Dose [Carcinogen]: 20 PPM IN DRINKING WATER FOR 8 WK, Promoter: NONE USED): 9/15 (60%), 2/16 (13%), 78%, p<0.05 | tumour outcome (control, treated, inhibition, significance) (Carcinogen: 4-NITROQUINOLINE-1-OXIDE, 56-57-5, Dose [Inhibitor]: 0, 500 PPM IN DIET FOR 10 WK BEGINNING 1 WK PRIOR TO CARCINOGEN DOSE (STUDY DURATION: 32 WK), Route [Inhibitor]: ORAL, Species: RAT, Strain/Sex: F344/MALE, Target Tissue: Type of Lesion: TONGUE: PAPILLOMA, Dose [Carcinogen]: 20 PPM IN DRINKING WATER FOR 8 WK, Promoter: NONE USED): 4/15 (27%), 1/16 (6%), 78%, not significant | tumour outcome (control, treated, inhibition, significance) (Carcinogen: 4-NITROQUINOLINE-1-OXIDE, 56-57-5, Dose [Inhibitor]: 0, 500 PPM IN DIET FOR 22 WK BEGINNING 1 WK POST CARCINOGEN TREATMENT (STUDY DURATION: 32 WK), Route [Inhibitor]: ORAL, Species: RAT, Strain/Sex: F344/MALE, Target Tissue: Type of Lesion: TONGUE: CARCINOMA, Dose [Carcinogen]: 20 PPM IN DRINKING WATER FOR 8 WK, Promoter: NONE USED): 9/15 (60%), 1/15 (7%), 88%, p<0.05 | tumour outcome (control, treated, inhibition, significance) (Carcinogen: 4-NITROQUINOLINE-1-OXIDE, 56-57-5, Dose [Inhibitor]: 0, 500 PPM IN DIET FOR 22 WK BEGINNING 1 WK POST CARCINOGEN TREATMENT (STUDY DURATION: 32 WK), Route [Inhibitor]: ORAL, Species: RAT, Strain/Sex: F344/MALE, Target Tissue: Type of Lesion: TONGUE: PAPILLOMA, Dose [Carcinogen]: 20 PPM IN DRINKING WATER FOR 8 WK, Promoter: NONE USED): 4/15 (27%), 1/15 (7%), 74%, not significant | tumour outcome (control, treated, inhibition, significance) (Carcinogen: 7,12-DIMETHYLBENZ[A]ANTHRACENE, 57-97-6, Dose [Inhibitor]: 0, 0.2 ML OF A 1% SOLUTION 1/D FOR 2 WK APPLIED 5 MIN POST EACH CARCINOGEN DOSE THEN 1/D FOR 4 WK DURING PROMOTION STAGE, Route [Inhibitor]: DERMAL, Species: MOUSE, Strain/Sex: SWISS/MALE, Target Tissue: Type of Lesion: SKIN: PAPILLOMA, Dose [Carcinogen]: 0.2 ML OF A 0.24% SOLUTION IN DMSO 1/D FOR 2 WK, Promoter: CROTON OIL, 8001-28-3): 23/23 (100%), 8/24 (33%), 67%, not calculated | tumour outcome (control, treated, inhibition, significance) (Carcinogen: 7,12-DIMETHYLBENZ[A]ANTHRACENE, 57-97-6, Dose [Inhibitor]: 0, 0.2 ML OF A 1% SOLUTION 1/D FOR 2 WK APPLIED 5 MIN PRIOR TO EACH CARCINOGEN DOSE (STUDY DURATION: 20 WK), Route [Inhibitor]: DERMAL, Species: MOUSE, Strain/Sex: SWISS/MALE, Target Tissue: Type of Lesion: SKIN: PAPILLOMA, Dose [Carcinogen]: 0.2 ML OF A 0.24% SOLUTION IN DMSO 1/D FOR 2 WK, Promoter: CROTON OIL, 8001-28-3): 23/23 (100%), 20/24 (83%), 17%, not calculated | tumour outcome (control, treated, inhibition, significance) (Carcinogen: 7,12-DIMETHYLBENZ[A]ANTHRACENE, 57-97-6, Dose [Inhibitor]: 0, 3% IN DIET FOR 28 WK (STUDY DURATION: 28 WK), Route [Inhibitor]: ORAL, Species: RAT, Strain/Sex: SPRAGUE-DAWLEY/FEMALE, Target Tissue: Type of Lesion: MAMMARY GLAND: CARCINOMA, Dose [Carcinogen]: 10 MG/100 G BW ONCE): 16/21 (76%), 10/22 (46%), 39% p<0.05 | tumour outcome (control, treated, inhibition, significance) (Carcinogen: 7,12-DIMETHYLBENZ[A]ANTHRACENE, 57-97-6, Dose [Inhibitor]: 1.0% IN POWDERED DIET BEGINNING 1 WK POST CARCINOGEN DOSE FOR 51 WK (STUDY DURATION: 52 WK), Route [Inhibitor]: ORAL, Species: RAT, Strain/Sex: SPRAGUE-DAWLEY/FEMALE, Target Tissue: Type of Lesion: EAR DUCT: BENIGN TUMOR, Dose [Carcinogen]: 2.5 MG/100 G BW IN 0.5 ML SESAME OIL ONCE, Promoter: NONE USED): 7/19 (37%), 4/18 (22%), 40%, not calculated | tumour outcome (control, treated, inhibition, significance) (Carcinogen: 7,12-DIMETHYLBENZ[A]ANTHRACENE, 57-97-6, Dose [Inhibitor]: 1.0% IN POWDERED DIET BEGINNING 1 WK POST CARCINOGEN DOSE FOR 51 WK (STUDY DURATION: 52 WK), Route [Inhibitor]: ORAL, Species: RAT, Strain/Sex: SPRAGUE-DAWLEY/FEMALE, Target Tissue: Type of Lesion: MAMMARY GLAND: CARCINOMA, Dose [Carcinogen]: 2.5 MG/100 G BW IN 0.5 ML SESAME OIL ONCE, Promoter: NONE USED): 6/19 (32%), 4/18 (22%), 30%, not calculated | tumour outcome (control, treated, inhibition, significance) (Carcinogen: 7,12-DIMETHYLBENZ[A]ANTHRACENE, 57-97-6, Dose [Inhibitor]: 1.0% IN POWDERED DIET BEGINNING 1 WK POST CARCINOGEN DOSE FOR 51 WK (STUDY DURATION: 52 WK), Route [Inhibitor]: ORAL, Species: RAT, Strain/Sex: SPRAGUE-DAWLEY/FEMALE, Target Tissue: Type of Lesion: MAMMARY GLAND: FIBROADENOMA, Dose [Carcinogen]: 2.5 MG/100 G BW IN 0.5 ML SESAME OIL ONCE, Promoter: NONE USED): 15/19 (79%), 8/18 (44%), 44%, not calculated | tumour outcome (control, treated, inhibition, significance) (Carcinogen: 7,12-DIMETHYLBENZ[A]ANTHRACENE, 57-97-6, Dose [Inhibitor]: 30 UMOL 2 D/WK FOR 18 WK APPLIED 30-40 MIN PRIOR TO AND CONCURRENT WITH EACH PROMOTER TREATMENT BEGINNING 10 D POST CARC, Route [Inhibitor]: DERMAL, Species: MOUSE, Strain/Sex: CD-1/FEMALE, Target Tissue: Type of Lesion: SKIN: PAPILLOMA, Dose [Carcinogen]: 200 NMOL ONCE, Promoter: 12-O-TETRADECANOYLPHORBOL-13-ACETATE, 16561-29-8): 95%, 62%, 35%, not calculated
